In ChEMBL document CHEMBL6109136, “Discovery of the 2,3-Dihydrobenzopyrane-4-one as a Potent FTO Inhibitor against Obesity-Related Metabolic Diseases” (J Med Chem, 2025):
One block for each molecule: values may come before it.

What was measured:
[1] = molecular target: T1, Alpha-ketoglutarate-dependent dioxygenase FTO (Homo sapiens, UniProt Q9C0B1); assay: Inhibition of His-tagged N-terminal FTO (unknown origin)
Cytochrome P450 2C9 [2] = molecular target: T2, Cytochrome P450 2C9 (Homo sapiens, UniProt P11712); assay: Inhibition of CYP2C9 in human liver microsome by Liquid chromatography-tandem mass spectrometric analysis
T2 sequence (P11712 whole entry): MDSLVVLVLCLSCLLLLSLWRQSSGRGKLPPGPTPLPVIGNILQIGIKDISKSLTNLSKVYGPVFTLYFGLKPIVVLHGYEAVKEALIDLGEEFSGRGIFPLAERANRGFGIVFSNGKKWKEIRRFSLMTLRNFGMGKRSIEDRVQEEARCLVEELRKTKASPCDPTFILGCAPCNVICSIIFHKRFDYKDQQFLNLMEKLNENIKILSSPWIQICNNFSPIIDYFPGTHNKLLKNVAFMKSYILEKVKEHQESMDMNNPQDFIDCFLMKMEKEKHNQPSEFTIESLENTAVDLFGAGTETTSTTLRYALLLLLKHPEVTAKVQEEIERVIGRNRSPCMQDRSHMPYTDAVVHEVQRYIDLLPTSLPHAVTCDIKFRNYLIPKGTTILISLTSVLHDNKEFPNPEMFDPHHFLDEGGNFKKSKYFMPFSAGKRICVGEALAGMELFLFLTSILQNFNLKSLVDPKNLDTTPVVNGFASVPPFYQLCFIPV

in vitro [3] = conditions: human, liver microsomes
Description: Metabolic stability in human liver microsome assessed as half-life at 1 uM by HPLC analysis

[4] = molecular target: T1, Alpha-ketoglutarate-dependent dioxygenase FTO; assay: Binding affinity to GFP-tagged FTO (unknown origin) assessed as dissociation constant by microscale thermophoresis analysis
[5] = Binding affinity to GFP-tagged FTO Asp233 mutant (unknown origin) assessed as dissociation constant by microscale thermophoresis analysis
in vivo [6] = conditions: male, Sprague-Dawley, rat, po, 10 mg/kg
Description: Oral bioavailability in male Sprague-Dawley rat at 10 mg/kg measured up to 24 hrs by HPLC analysis

in vivo [7] = conditions: male, Sprague-Dawley, rat, iv, 5 mg/kg
Description: AUC (0 to infinity) in male Sprague-Dawley rat at 5 mg/kg, iv measured up to 8 hrs by HPLC analysis

in vivo [8] = conditions: male, Sprague-Dawley, rat, po, 10 mg/kg; remark: listed apart in the source
Description: AUC (0 to infinity) in male Sprague-Dawley rat at 10 mg/kg, po measured up to 24 hrs by HPLC analysis

CYP3A4/5 = CYP3A4/5 (Homo sapiens, UniProt P08684+P20815); assay: Inhibition of recombinant CYP3A4/5 in human liver microsome by Liquid chromatography-tandem mass spectrometric analysis; conditions: recombinant CYP3A4/5 in human liver microsomes
in vitro [9] = conditions: rat, liver microsomes
Description: Metabolic stability in rat liver microsomes assessed as intrinsic clearance per mg protein at 1 uM by HPLC analysis

[10] = Binding affinity to GFP-tagged FTO Glu234 mutant (unknown origin) assessed as dissociation constant by microscale thermophoresis analysis
[11] = Half-life in male Sprague-Dawley rat at 5 mg/kg, iv measured up to 8 hrs by HPLC analysis; conditions: in vivo
in vivo [12] = conditions: male, Sprague-Dawley, rat, po, 10 mg/kg; remark: listed apart in the source
Description: Tmax in male Sprague-Dawley rat at 10 mg/kg, po measured up to 24 hrs by HPLC analysis

[13] = Half-life in male Sprague-Dawley rat at 10 mg/kg, po measured up to 24 hrs by HPLC analysis; conditions: in vivo
[14] = Binding affinity to GFP-tagged FTO (Ser229) mutant (unknown origin) assessed as dissociation constant by microscale thermophoresis analysis
Cytochrome P450 2C19 = Cytochrome P450 2C19 (Homo sapiens, UniProt P33261); assay: Inhibition of recombinant CYP2C19 in human liver microsome by Liquid chromatography-tandem mass spectrometric analysis
Sequence of Cytochrome P450 2C19 (P33261 whole entry): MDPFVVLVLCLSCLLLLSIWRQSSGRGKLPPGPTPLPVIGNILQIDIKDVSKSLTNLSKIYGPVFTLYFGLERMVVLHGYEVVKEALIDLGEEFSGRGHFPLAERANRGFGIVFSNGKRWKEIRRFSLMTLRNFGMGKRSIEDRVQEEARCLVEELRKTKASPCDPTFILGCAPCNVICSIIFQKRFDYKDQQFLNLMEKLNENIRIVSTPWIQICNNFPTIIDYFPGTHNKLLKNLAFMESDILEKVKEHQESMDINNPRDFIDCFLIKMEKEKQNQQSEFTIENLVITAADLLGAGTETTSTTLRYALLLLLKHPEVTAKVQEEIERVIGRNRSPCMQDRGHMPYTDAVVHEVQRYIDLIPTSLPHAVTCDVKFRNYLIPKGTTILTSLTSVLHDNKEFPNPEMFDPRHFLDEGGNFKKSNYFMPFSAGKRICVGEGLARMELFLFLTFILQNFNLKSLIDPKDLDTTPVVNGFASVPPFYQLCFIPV

in vitro [15] = conditions: human, liver microsomes; remark: listed apart in the source
Description: Metabolic stability in human liver microsomes assessed as hepatic clearance at 1 uM by HPLC analysis

[16] = molecular target: T1, Alpha-ketoglutarate-dependent dioxygenase FTO; assay: Binding affinity to GFP-tagged FTO (unknown origin) assessed as dissociation constant by SPR analysis
[17] = MRT in male Sprague-Dawley rat at 10 mg/kg, po measured up to 24 hrs by HPLC analysis; conditions: in vivo
in vivo [18] = conditions: male, Sprague-Dawley, rat, po, 10 mg/kg; remark: listed apart in the source
Description: Cmax in male Sprague-Dawley rat at 10 mg/kg, po measured up to 24 hrs by HPLC analysis

Cytochrome P450 2D6 = Cytochrome P450 2D6 (Homo sapiens, UniProt P10635); assay: Inhibition of recombinant CYP2D6 in human liver microsome by Liquid chromatography-tandem mass spectrometric analysis
Sequence of Cytochrome P450 2D6 (P10635 whole entry): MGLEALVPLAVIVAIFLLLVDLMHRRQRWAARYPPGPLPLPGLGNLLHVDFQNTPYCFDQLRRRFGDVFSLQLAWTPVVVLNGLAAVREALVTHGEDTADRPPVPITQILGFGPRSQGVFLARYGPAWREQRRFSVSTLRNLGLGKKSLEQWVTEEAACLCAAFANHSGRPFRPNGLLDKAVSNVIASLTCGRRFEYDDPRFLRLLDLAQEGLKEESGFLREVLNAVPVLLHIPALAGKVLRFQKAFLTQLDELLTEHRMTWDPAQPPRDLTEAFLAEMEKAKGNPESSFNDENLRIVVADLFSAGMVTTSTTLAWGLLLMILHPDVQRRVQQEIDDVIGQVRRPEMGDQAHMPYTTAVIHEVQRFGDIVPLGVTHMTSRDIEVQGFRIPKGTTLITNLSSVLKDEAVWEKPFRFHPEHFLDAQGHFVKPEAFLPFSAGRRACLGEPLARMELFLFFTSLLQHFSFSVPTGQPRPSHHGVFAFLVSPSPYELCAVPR

[19] = MRT in male Sprague-Dawley rat at 5 mg/kg, iv measured up to 8 hrs by HPLC analysis; conditions: in vivo
[20] = Binding affinity to GFP-tagged FTO Tyr108 mutant (unknown origin) assessed as dissociation constant by microscale thermophoresis analysis
in vitro [21] = conditions: rat, liver microsomes; remark: listed apart in the source
Description: Metabolic stability in rat liver microsome assessed as half-life at 1 uM by HPLC analysis

Cytochrome P450 2C9 [22] = molecular target: T2, Cytochrome P450 2C9; assay: Inhibition of recombinant CYP2C9 in human liver microsome by Liquid chromatography-tandem mass spectrometric analysis
in vivo [23] = conditions: male, Sprague-Dawley, rat, iv, 5 mg/kg; remark: listed apart in the source
Description: Cmax in male Sprague-Dawley rat at 5 mg/kg, iv measured up to 8 hrs by HPLC analysis

in vitro [24] = conditions: rat, liver microsomes; remark: listed apart in the source
Description: Metabolic stability in rat liver microsomes assessed as hepatic clearance at 1 uM by HPLC analysis

[25] = Binding affinity to GFP-tagged FTO Arg96 mutant (unknown origin) assessed as dissociation constant by microscale thermophoresis analysis
in vitro [26] = conditions: human, liver microsomes; remark: listed apart in the source
Description: Metabolic stability in human liver microsomes assessed as intrinsic clearance per mg protein at 1 uM by HPLC analysis

T1 sequence (Q9C0B1 whole entry): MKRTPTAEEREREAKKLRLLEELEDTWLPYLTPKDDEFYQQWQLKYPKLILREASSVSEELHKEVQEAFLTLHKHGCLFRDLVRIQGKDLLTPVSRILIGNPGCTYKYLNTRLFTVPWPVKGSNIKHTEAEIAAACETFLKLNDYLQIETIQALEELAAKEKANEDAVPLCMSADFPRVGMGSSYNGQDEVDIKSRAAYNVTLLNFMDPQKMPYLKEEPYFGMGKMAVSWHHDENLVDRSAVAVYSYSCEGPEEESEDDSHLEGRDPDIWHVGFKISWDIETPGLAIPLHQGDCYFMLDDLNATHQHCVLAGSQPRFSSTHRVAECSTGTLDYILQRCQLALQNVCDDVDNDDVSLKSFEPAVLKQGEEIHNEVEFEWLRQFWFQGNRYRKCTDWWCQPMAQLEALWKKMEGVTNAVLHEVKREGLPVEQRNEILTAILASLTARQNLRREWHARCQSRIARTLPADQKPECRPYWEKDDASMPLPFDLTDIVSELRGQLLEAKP

SMILES: O=c1cc(-c2ccc(O)c(O)c2)oc2ccccc12
- IC50 [1]: 5.7 µM

SMILES: O=c1cc(-c2cc(O)c(O)c(O)c2)oc2ccccc12
- IC50 [1]: 13.9 µM

SMILES: O=c1cc(-c2ccccc2)oc2cccc(O)c12 [5-HYDROXYFLAVONE]
- IC50 [1]: 19.2 µM

SMILES: O=c1cc(-c2ccccc2)oc2cc(O)ccc12 [7-HYDROXYFLAVONE]
- IC50 [1]: 17.9 µM

SMILES: O=c1cc(-c2ccc(O)cc2)oc2cc(O)cc(O)c12 [APIGENIN]
- IC50 [1]: 12.1 µM

SMILES: O=c1cc(-c2ccccc2)oc2cc(O)c(O)c(O)c12 [BAICALEIN]
- IC50 [1]: 17.1 µM

SMILES: O=c1ccoc2ccccc12 [CHROMONE]
- IC50 [1]: 89.8 µM

SMILES: COc1ccc(-c2oc3cc(O)cc(O)c3c(=O)c2O)cc1 [KAEMPFERIDE]
- IC50 [1]: 18.2 µM

SMILES: O=c1c(O)c(-c2ccc(O)cc2)oc2cc(O)cc(O)c12 [KAEMPFEROL]
- IC50 [1]: 17.6 µM

SMILES: O=c1cc(-c2ccc(O)c(O)c2)oc2cc(O)cc(O)c12 [LUTEOLIN]
- IC50 [1]: 7.5 µM

SMILES: O=c1c(O)c(-c2ccc(O)c(O)c2)oc2cc(O)cc(O)c12 [QUERCETIN]
- IC50 [1]: 9.5 µM

SMILES: O=c1cc(-c2ccc(O)cc2)oc2cc(O)c(O)c(O)c12 [SCUTELLAREIN]
- IC50 [1]: 15.6 µM

SMILES: O=c1cc(-c2cc(O)c(O)c(O)c2)oc2cc(O)cc(O)c12 [TRICETIN]
- IC50 [1]: 7.7 µM

More lines, now with the values ahead:

- IC50 [1]: 18.5 µM
SMILES: O=c1c(O)c(-c2ccc(O)cc2)oc2ccccc12

- IC50 [1]: 16.2 µM
SMILES: O=c1ccoc2cc(O)ccc12

- IC50 [1]: 17.8 µM
SMILES: O=c1cc(-c2ccccc2)oc2ccc(O)cc12 [6-HYDROXYFLAVONE]

- IC50 (Cytochrome P450 2C9 [2]): 4 µM
SMILES: CCN(CC)C(=O)/C(C#N)=C/c1cc(O)c(O)c([N+](=O)[O-])c1 [ENTACAPONE]

- half-life at 1 µM (in vitro [3]): > 3.11 h
- IC50 [1]: 3.5 µM
- Kd [4]: 2.8 µM
- Kd [5]: 109 µM
- bioavailability at 24 h (in vivo [6]): 29.9%
- AUC(0-inf) at 8 h (in vivo [7]): 932 ng·h/mL
- AUC(0-inf) at 24 h (in vivo [8]): 559 ng·h/mL
- IC50 (CYP3A4/5): > 50 µM
- microsomal CLint at 1 µM (in vitro [9]): 67.2 µL/min/mg
- Kd [10]: 186 µM
- half-life at 8 h [11]: 1.63 h
- Tmax at 24 h (in vivo [12]): 0.5 h
- half-life at 24 h [13]: 3.35 h
- Kd [14]: 170 µM
- IC50 (Cytochrome P450 2C19): 44 µM
- CLhep predicted at 1 µM (in vitro [15]): < 6.1 mL/min/kg
- Kd [16]: 3.24 µM
- MRT at 24 h [17]: 1.89 h
- Cmax at 24 h (in vivo [18]): 472 ng/mL
- IC50 (Cytochrome P450 2D6): > 50 µM
- MRT at 8 h [19]: 0.828 h
- Kd [20]: 47.6 µM
- half-life at 1 µM (in vitro [21]): 0.345 h
- IC50 (Cytochrome P450 2C9 [22]): > 50 µM
- Cmax at 8 h (in vivo [23]): 1830 ng/mL
- CLhep predicted at 1 µM (in vitro [24]): 37.9 mL/min/kg
- Kd [25]: 257 µM
- microsomal CLint at 1 µM (in vitro [26]): < 7.4 µL/min/mg
SMILES: O=C1C[C@@H](c2ccc(O)c(O)c2)Oc2cc(O)cc(O)c21 [ERIODICTYOL]

- IC50 [1]: 9.2 µM
SMILES: O=c1c(O)c(-c2ccc(O)c(O)c2)oc2cc(O)ccc12 [FISETIN]

- IC50 [1]: 19.1 µM
SMILES: O=c1c(O)c(-c2ccccc2)oc2cc(O)cc(O)c12 [GALANGIN]

- IC50 [1]: 13.9 µM
SMILES: O=c1c(O)c(-c2ccc(O)cc2O)oc2cc(O)cc(O)c12 [MORIN]

- IC50 [1]: 9.6 µM
- Kd [4]: 34 µM
SMILES: O=c1c(O)c(-c2cc(O)c(O)c(O)c2)oc2cc(O)cc(O)c12 [MYRICETIN]
